Data reported in patent publication US7067519B2 (priority 2002, dated 2006).

Tests used:
[1] = target: T1, human orexin-2 receptor (Homo sapiens, UniProt O43614); test: Intracellular calcium measurement (FLIPR), OX2 receptor antagonistic activity; assay type: cell-based; conditions: CHO cells expressing human orexin-2 receptor, agonist 10 nM human orexin-A, fluo-3 calcium
T1 construct: expressed in transfected cells; host or cells: CHO cells (G418 selection)
T1 sequence (O43614 1-444): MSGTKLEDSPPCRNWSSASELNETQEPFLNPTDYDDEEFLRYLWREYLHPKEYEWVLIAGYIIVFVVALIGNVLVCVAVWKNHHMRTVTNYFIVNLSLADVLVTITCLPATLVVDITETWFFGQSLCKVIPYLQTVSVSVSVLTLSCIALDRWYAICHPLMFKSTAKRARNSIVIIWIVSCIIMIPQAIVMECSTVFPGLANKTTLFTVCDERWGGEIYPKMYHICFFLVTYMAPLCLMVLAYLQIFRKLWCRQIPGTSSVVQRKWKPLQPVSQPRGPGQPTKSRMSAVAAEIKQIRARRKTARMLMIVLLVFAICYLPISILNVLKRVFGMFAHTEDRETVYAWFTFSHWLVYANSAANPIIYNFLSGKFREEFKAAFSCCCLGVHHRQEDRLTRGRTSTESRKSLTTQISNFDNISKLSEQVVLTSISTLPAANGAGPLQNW
Procedure: (§1) Determination of OX1 and OX2 Receptor Antagonistic Activities
(§2) The OX1 and OX2 receptor antagonistic activity of the compounds of formula (I) was determined in accordance with the following experimental method.
(§3) Intracellular Calcium Measurements
(§4) Chinese hamster ovary (CHO) cells expressing the human orexin-1 receptor or the human orexin-2 receptor, were grown in culture medium (Ham F-12 with L-Glutamine) containing 300 μg/ml G418, 100 U/ml penicillin, 100 μg/ml streptomycin and 10% inactivated foetal calf serum (FCS).
(§5) The cells were seeded at 80'000 cells/well into 96-well black clear bottom sterile plates (Costar) which had been precoated with 1% gelatine in Hanks' Balanced Salt Solution (HBSS). All reagents were from Gibco BRL.
(§6) The seeded plates were incubated overnight at 37° C. in 5% CO2.
(§7) Human orexin-A as an agonist was prepared as 1 mM stock solution in methanol:water (1:1), diluted in HBSS containing 0.1% bovine serum albumin (BSA) and 2 mM HEPES for use in the assay at a final concentration of 10 nM.
(§8) Antagonists were prepared as 10 mM stock solution in DMSO, then diluted in 96-well plates, first in DMSO, then in HBSS containing 0.1% bovine serum albumin (BSA) and 2 mM HEPES.
(§9) On the day of the assay, 100 μl of loading medium (HBSS containing 1% FCS, 2 mM HEPES, 5 mM probenecid (Sigma) and 3 μM of the fluorescent calcium indicator fluo-3 AM (1 mM stock solution in DMSO with 10% pluronic acid) (Molecular Probes) was added to each well.
(§10) The 96-well plates were incubated for 60 min at 37° C. in 5% CO2. The loading solution was then aspirated and cells were washed 3 times with 200 μl HBSS containing 2.5 mM probenecid, 0.1% BSA, 2 mM HEPES. 100 μl of that same buffer was left in each well. Within the Fluorescent Imaging Plate Reader (FLIPR, Molecular Devices), antagonists were added to the plate in a volume of 50 μl, incubated for 20 min and finally 100 μl of
(§11) agonist was added. Fluorescence was measured for each well at 1 second intervals, and the height of each fluorescence peak was compared to the height of the fluorescence peak induced by 10 nM orexin-A with buffer in place of antagonist. For each antagonist, IC50 value (the concentration of compound needed to inhibit 50% of the agonistic response) was determined.

[2] = target: T2, human orexin-1 receptor (Homo sapiens, UniProt O43613); test: Intracellular calcium measurement (FLIPR), OX1 receptor antagonistic activity; assay type: cell-based; conditions: CHO cells expressing human orexin-1 receptor, agonist 10 nM human orexin-A, fluo-3 calcium
T2 construct: expressed in transfected cells; host or cells: CHO cells (G418 selection)
T2 sequence (O43613 1-425): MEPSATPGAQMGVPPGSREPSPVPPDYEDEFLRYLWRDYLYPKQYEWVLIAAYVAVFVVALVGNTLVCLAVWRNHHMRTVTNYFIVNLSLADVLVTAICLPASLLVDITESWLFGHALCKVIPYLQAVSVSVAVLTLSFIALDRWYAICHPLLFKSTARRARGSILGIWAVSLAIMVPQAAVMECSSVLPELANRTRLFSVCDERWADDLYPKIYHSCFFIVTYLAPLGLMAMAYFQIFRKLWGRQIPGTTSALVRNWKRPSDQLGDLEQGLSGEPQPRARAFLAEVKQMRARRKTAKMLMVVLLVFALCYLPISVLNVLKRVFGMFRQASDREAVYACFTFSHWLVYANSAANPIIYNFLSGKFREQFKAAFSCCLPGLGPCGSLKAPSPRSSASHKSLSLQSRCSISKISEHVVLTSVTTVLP
Procedure: as §1, §2, §3, §4, §5, §6, §7, §8, §9, §10, §11

Structure (SMILES)	IC50 [1]	IC50 [2]
CCOc1ccccc1NC(=O)N(C(C)c1ccccc1)C1CCn2c1nc1ccccc1c2=O (stereo not shown) [Example 3, 3-(2-Ethoxy-phenyl)-1-(9-oxo-1,2,3,9-tetrahydro-pyrrolo[2,1-b]quinazolin-3-yl)-1-(1-phenyl-ethyl)-urea]	79 nM	115 nM
CC(c1ccccc1)N(C(=O)Nc1ccccc1OC(F)(F)F)C1CCn2c1nc1cc(F)ccc1c2=O (stereo not shown) [Example 7, 1-(6-Fluoro-9-oxo-1,2,3,9-tetrahydro-pyrrolo[2,1-b]quinazolin-3-yl)-1-(1-phenyl-ethyl)-3-(2-trifluoromethoxy-phenyl)-urea]	27 nM	2400 nM
CCCc1ccccc1NC(=O)N(C(C)c1ccccc1)C1CCCn2c1nc1cc(F)c(F)cc1c2=O (stereo not shown) [Example 28, 1-(2,3-Difluoro-11-oxo-6,8,9,11-tetrahydro-7H-pyrido[2,1-b]quinazolin-6-yl)-1-(1-phenyl-ethyl)-3-(2-n-propyl-phenyl)-urea]	17 nM	153 nM
CCc1ccccc1NC(=O)N(C(C)c1ccccc1)C1CCCn2c1nc1cc(F)c(F)cc1c2=O (stereo not shown) [Example 30, 1-(2,3-Difluoro-11-oxo-6,8,9,11-tetrahydro-7H-pyrido[2,1-b]quinazolin-6-yl)-3-(2-ethyl-phenyl)-1-(1-phenyl-ethyl)-urea]	16 nM	261 nM
CC(c1ccccc1)N(C(=O)Nc1ccccc1OC(F)(F)F)C1CCn2c1nc1cccc(Cl)c1c2=O (stereo not shown) [Example 40]	14 nM	37 nM

Second part, the compound after the results:

IC50 [1]	IC50 [2]	Structure (SMILES)
18 nM	127 nM	CCCc1ccccc1NC(=O)N(C(C)c1ccccc1)C1CCCn2c1nc1cc(F)ccc1c2=O (stereo not shown) [Example 33, 1-(3-Fluoro-11-oxo-6,8,9,11-tetrahydro-7H-pyrido[2,1-b]quinazolin-6-yl)-1-(1-phenyl-ethyl)-3-(2-n-propyl-phenyl)-urea]
14 nM	52 nM	CC(c1ccccc1)N(C(=O)Nc1ccccc1-c1ccccc1)C1CCn2c1nc1cccc(Cl)c1c2=O (stereo not shown) [Example 41, 3-Biphenyl-2-yl-1-(8-chloro-9-oxo-1,2,3,9-tetrahydro-pyrrolo[2,1-b]quinazolin-3-yl)-1-(1-phenyl-ethyl)-urea]
27 nM	67 nM	CCCc1ccccc1NC(=O)N(C(C)c1ccccc1)C1CCn2c1nc1cccc(Cl)c1c2=O (stereo not shown) [Example 44, 1-(8-Chloro-9-oxo-1,2,3,9-tetrahydro-pyrrolo[2,1-b]quinazolin-3-yl)-1-(1-phenyl-ethyl)-3-(2-n-propyl-phenyl)-urea]
16 nM	12 nM	C[C@@H](c1ccccc1)N(C(=O)Nc1ccccc1OC(F)(F)F)C1CCn2c1nc1cccc(C(F)(F)F)c1c2=O (stereo partly drawn) [Example 49, 1-(9-Oxo-8-trifluoromethyl-1,2,3,9-tetrahydro-pyrrolo[2,1-b]quinazolin-3-yl)-1-((S)-1-phenyl-ethyl)-3-(2-trifluoromethoxy-phenyl)-urea]
18 nM	14 nM	CCCc1ccccc1NC(=O)N(C1CCn2c1nc1cccc(C(F)(F)F)c1c2=O)[C@@H](C)c1ccccc1 (stereo partly drawn) [Example 50, 1-(9-Oxo-8-trifluoromethyl-1,2,3,9-tetrahydro-pyrrolo[2,1-b]quinazolin-3-yl)-1-((S)-1-phenyl-ethyl)-3-(2-n-propyl-phenyl)-urea]
21 nM	28 nM	CCc1ccccc1NC(=O)N(C1CCn2c1nc1cccc(C(F)(F)F)c1c2=O)[C@@H](C)c1ccccc1 (stereo partly drawn) [Example 51, 3-(2-Ethyl-phenyl)-1-(9-oxo-8-trifluoromethyl-1,2,3,9-tetrahydro-pyrrolo[2,1-b]quinazolin-3-yl)-1-((S)-1-phenyl-ethyl)-urea]
